Reference: patent publication US4820715A, “Anti-emetic quinuclidinyl benzamides” (Bristol-Myers Company, priority 1987, dated 1989)
Structures can show the parent of a compound that is named as a salt.

Legend:
[1] = tested on: Apomorphine-Induced Emesis; experiment: Antagonism of Apomorphine-Induced Emesis in Dogs; format: in vivo, beagle dogs; settings: Canis lupus familiaris, sc; s.c. 30 minutes prior to apomorphine 0.3 mg/kg; dog; read-out: Antagonism of Apomorphine-Induced Emesis in the Dog ED50
Protocol: Unfasted beagle dogs of both sexes were used as test subjects. Test compounds and apomorphine were each administered subcutaneously as aqueous solutions, with the test compound being administered 30 minutes prior to the administration of the apormorphine.
Apomorphine was administered at a dose of 0.3 mg/kg. […] All tests were run in at least two dogs.

[2] = molecular target: dopaminergic (D2) receptors (Rattus norvegicus, UniProt P61169); experiment: biochemical; format: binding; settings: striatal rat brain homogenates, ^3H-spiperone, 37° C., 15 minutes; read-out: 3H-Spiperone Displacement IC50
Protocol: Rats (150±10 g; Charles River) were decapitated, the corpus striatum dissected out and frozen on dry ice. The tissues were pooled and stored at -80° C. until used. Homogenates (Brinkmann Polytron) of the corpus striatum in cold HEPES.KOH buffer (final pH=7.4) were centrifuged at 39,000×G. The supernatant was discarded and the pellets were re-suspended in HEPES.KOH buffer and re-centrifuged as above.
Tests to determine the Inhibitory Concentration50 (IC50) of the compounds of Formula I and reference compounds versus ^3 H-spiperone were conducted as follows. Tubes containing either 100 μL of buffer mixture (for total binding), 100 μL of buffer mixture plus 100 μL of 10^-4 M D(+)-butaclamol (for blanks, i.e. non-specific binding), or 100 μL of buffer mixture containing 10^-7, 10^-6 or 10^-5 M test compound were prepared. To each were added 100 μL of a solution of ^3 H-spiperone (New England Nuclear) in buffer mixture (2000 c.p.m. in the incubation mixture) and 800 μL of the striatal tissue suspension. The tubes were then diluted to 1 mL with buffer mixture, giving a final concentration of 10^-8, 10^-7 or 10^-6 M test compound and approximately 100 pM ^3 H-spiperone. The samples were incubated at 37° C. for 15 minutes, filtered in vacuo on glass fiber filters and counted by liquid scintillation spectrometry. […] All samples were run in duplicate.

Cisplatin-Induced Emesis = experiment: Antagonism of Cisplatin-Induced Emesis in the Ferret; format: in vivo, Fitch ferrets; settings: Mustela putorius, iv, 4 h, i.v. × 2, read-out: Antagonism of Cisplatin-Induced Emesis in the Ferret, % Protection
Source text: The ventral and dorsal area of the neck is shaved and a 3 cm incision is made. The left jugular vein is exposed and ligated with a silk suture at the cephalic end. The indwelling catheter is constructed of Silastic tubing 18 cm in length (0.020 inch I.D.×0.037 inch O.D.) with a 2 cm polyethylene sleeve (0.045 inch I.D.×0.062 inch O.D.) filled with heparin (1000 units/ml) and sealed at the exposed end with a 23 gauge×1 inch needle crimped at both ends. A small cut is made in the jugular and the catheter inserted, allowing the free end to be delivered through a 13 gauge×5 cm trochar under the skin and attached to the nape of the neck with a silk suture. The ferrets are housed in individual cages and allowed 2-4 days recovery before testing. On the test day, the test compounds were administered i.v. […] The cisplatin solution was prepared by adding 70° C. physiological saline, stirring and sonicating until dissolved. The resulting solution (4 mg/ml) was maintained at 40° C. and administered i.v. ([…]) via the catheter. Following administration of cisplatin, the ferrets were observed continuously for four hours and emetic episodes recorded. Two or more emetic episodes within a one-minutes period was considered as a single episode. The ferrets were euthanized with T-61 i.v. at the termination of the experiment, and proper placement of the catheter was verified.

[3] = tested on: field-stimulated guinea pig ileum; experiment: Gastrokinetic Activity: contraction of field-stimulated guinea pig ileum preparations; parameters: species or system guinea pig (Hartley); settings: Cavia porcellus; for EC30: effective concentration30, read-out: EC30 (95% C.L.); for EC50: effective concentration50, read-out: EC50 (95% C.L.); for minimal effective concentration: read-out: Minimum Effective Concentration
Protocol: This activity is considered to be correlated with gastrokinetic (prokinetic) activity in vivo, i.e. enhancement of gastric motility and gastric emptying.
Normal, male guinea pigs (Hartley; Charles River) weighing […] are sacrificed by cervical dislocation. The terminal portion of the ileum was removed after discarding a 10 cm segment nearest to the ileocecal junction. The strips, 3-4 cm in length, were mounted in a 20 ml organ bath containing Krebs physiological buffer solution. The buffer was bubbled with 95% O2 -5% CO2 and kept at 37° C. The resting tension was adjusted to 1.0 g, and the tissues were equilibrated without stimulation for 15 minutes. For electrical stimulation, a platinum wire (cathode) was threaded up through the lumen and another platinum wire (anode) was attached to the glass rod that suspended the muscle. Tissues were stimulated coaxially at 1.5 times the voltage necessary to produce maximum twitch height, with single pulses, 0.5 msec in duration, delivered once every 10 seconds. After the 15 minute equilibration period (without stimulation), the stimulator (Grass S88 Stimulator) was turned on and the tissues were allowed to stabilize for approximately 1 hour, or until the twitch height remained constant, with washes every 20 minutes.

[4] = read-out: Average % Maximum Increase

Chain of dopaminergic (D2) receptors (P61169 whole entry): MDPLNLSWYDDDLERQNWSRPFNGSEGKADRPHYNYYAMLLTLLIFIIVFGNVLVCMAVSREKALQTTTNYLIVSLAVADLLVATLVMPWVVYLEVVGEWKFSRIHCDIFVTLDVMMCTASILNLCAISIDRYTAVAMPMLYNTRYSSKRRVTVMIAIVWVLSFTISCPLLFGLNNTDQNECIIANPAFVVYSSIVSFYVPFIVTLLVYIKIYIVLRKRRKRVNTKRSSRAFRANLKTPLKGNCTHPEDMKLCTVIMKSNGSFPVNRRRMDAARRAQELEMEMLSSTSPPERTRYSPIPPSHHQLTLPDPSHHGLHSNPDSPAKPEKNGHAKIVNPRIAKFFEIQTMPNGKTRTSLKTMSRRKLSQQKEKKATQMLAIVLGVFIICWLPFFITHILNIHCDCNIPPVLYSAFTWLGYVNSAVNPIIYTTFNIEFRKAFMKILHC

| Compound | IC50 [2] [µM] | EC50 [3] [µM] | ED50 [1] [mg/kg] | inhibition in vivo at 3 mg/kg (Cisplatin-Induced Emesis) [%] | inhibition in vivo at 1 mg/kg (Cisplatin-Induced Emesis) [%] | activation at 30 µM [3, 4] [%] | EC30 [3] [µM] | minimal effective concentration [3] [µM] | activation at 10 µM ([3]; at 10 μM, read-out: Average % Maximum Increase) [%] | activation at 3 µM ([3]; at 3 μM, read-out: Average % Maximum Increase) [%] |
| --- | --- | --- | --- | --- | --- | --- | --- | --- | --- | --- |
| CC(=O)C(C)Oc1cc(N)c(Cl)cc1C(=O)NCCN(C)C (stereo not drawn) [Example 32, 4-Amino-2-(2-butanon-3-yl)oxy-5-chloro-N-[2-(dimethylamino)ethyl]benzamide] | > 1 | – | > 3 | – | 72 | – | – | – | – | – |
| CCN(CC)CCNC(=O)c1cc(Cl)c(N)cc1OCC(C)=NOC [Example 11, 4-Amino-5-chloro-N-[2-(diethylamino)ethyl]-2-[(2-methoxyimino)propan-1-yl]oxybenzamide] | > 1 | – | > 3 | 90 | – | – | – | – | – | – |
| CCN(CC)CCNC(=O)c1cc(Cl)c(N)cc1OCCN [Example 47, 4-Amino-2-(2-aminoethoxy)-5-chloro-N-[2-(diethylamino)ethyl]benzamide] | > 1 | – | > 3 | 8 | – | – | – | – | – | – |
| CCOC(=O)C(Oc1cc(N)c(Cl)cc1C(=O)NCCN(CC)CC)c1ccccc1 (stereo not drawn) [Example 35, α-{3-Amino-4-chloro-6-[N-(2-[diethylamino]ethyl)]carbomoylphenoxy}phenylacetic acid, ethyl ester] | > 1 | – | > 3 | 72 | – | – | – | – | – | – |
| CCN(CC)CCNC(=O)c1cc(Cl)c(N)cc1OC(C)C#N (stereo not drawn) [Example 14, 4-Amino-5-chloro-[2-(diethylamino)ethyl]-2-(1-cyano)ethoxybenzamide] | – | 18 | > 3 | 62 | – | 55 | 4.3 | 0.1 | – | – |
| CCN(CC)CCNC(=O)c1cc(Cl)c(N)cc1OCCSC [Example 20, 4-Amino-5-chloro-N-[2-(diethylamino)ethyl]-2-[2-(methylthio)ethoxy]benzamide] | > 1 | – | > 3 | 50 | – | – | – | – | – | – |
| CCN(CC)CCNC(=O)c1cc(Cl)c(N)cc1OC(C)C(C)=NO (stereo not drawn) [Example 34, 4-Amino-5-chloro-N-[2-(diethylamino)ethyl]-2-(2-hydroxyiminobut-3-yl)oxybenzamide] | > 1 | – | > 3 | – | 54 | – | – | – | – | – |
| COc1cc(N)c(Cl)cc1C(=O)NC1CCN(Cc2ccccc2)CC1 [Clebopride, reference compound] | 0.011 | – | 0.04 | 70 | – | – | – | – | – | – |
| CCOC(=O)C=C(COc1cc(N)c(Cl)cc1C(=O)NCCN(CC)CC)OC [Example 42, 4-Amino-5-chloro-N-[2-(diethylamino)ethyl]-2-(ethyl-3-methoxycroton-4-yl)oxybenzamide] | > 1 | – | > 3 | 95 | – | – | – | – | – | – |
| CCN(CC)CCNC(=O)c1cc(Cl)c(N)cc1OCC1CNC(=O)O1 (stereo not drawn) [Example 44, 4-Amino-5-chloro-N[2-(diethylamino)ethyl]-2-(oxazolidin)-2-one-5-ylmethyl)oxybenzamide Fumarate] | > 1 | – | > 3 | 71 | – | – | – | – | – | – |
| C=CCN1CCCC1CNC(=O)c1cc2[nH]nnc2cc1OC (stereo not drawn) [Alizapride, reference compound] | 0.29 | – | 0.3 | 27 | – | – | – | – | – | – |
| C=CCC(C)(Oc1cc(N)c(Cl)cc1C(=O)NCCN(CC)CC)C(C)=O (stereo not drawn) [Example 8, 4-Amino-5-chloro-N-[2-(diethylamino)ethyl]-2-[(3-methyl)-5-hexen-2-on-3-yl]oxybenzamide] | > 1 | – | > 3 | 95 | – | – | – | – | – | – |
| CCN(CC)CCNC(=O)c1cc(Cl)c(N)cc1OCc1cc(C)no1 [Example 19, 4-Amino-5-chloro-N-[2-(diethylamino)ethyl]-2-(3-methylisoxazol-5-yl)methoxybenzamide] | – | 5.9 | > 3 | 72 | – | – | 1.7 | 0.1 | – | 39 |
| CCN(CC)CCNC(=O)c1cc(Cl)c(N)cc1OCCCN1C(=O)c2ccccc2C1=O [Example 38, 4-Amino-5-chloro-N-[2-(diethylamino)ethyl]-2-[3-(phthalimido)propoxy]benzamide] | > 1 | – | > 3 | 57 | – | – | – | – | – | – |
| CCN(CC)CCNC(=O)c1cc(Cl)c(N)cc1OCCOC(C)=O [Example 57, 2-(2-Acetoxyethoxy)-4-amino-5-chloro-N-[2-(diethylamino)ethyl]-benzamide] | > 1 | – | > 3 | 66 | – | – | – | – | – | – |

The next lines start with results.

| IC50 [2] [µM] | EC50 [3] [µM] | Compound | ED50 [1] [mg/kg] | inhibition in vivo at 3 mg/kg (Cisplatin-Induced Emesis) [%] | inhibition in vivo at 1 mg/kg (Cisplatin-Induced Emesis) [%] | activation at 30 µM [3, 4] [%] | EC30 [3] [µM] | minimal effective concentration [3] [µM] | activation at 10 µM ([3]; at 10 μM, read-out: Average % Maximum Increase) [%] | activation at 3 µM ([3]; at 3 μM, read-out: Average % Maximum Increase) [%] |
| --- | --- | --- | --- | --- | --- | --- | --- | --- | --- | --- |
| > 1 | – | CCN(CC)CCNC(=O)c1cc(Cl)c(N)cc1OCC(=O)N(C)C [Example 55] | > 3 | 66 | – | – | – | – | – | – |
| > 1 | – | CCN(CC)CCNC(=O)c1cc(Cl)c(N)cc1OCCCl [Example 53, 4-Amino-5-chloro-2-(2-chloroethoxy)-N-[2-(2-diethylamino)ethyl]benzamide] | > 3 | 91 | – | – | – | – | – | – |
| > 1 | – | CO[C@@H]1CN(CCCOc2ccc(F)cc2)CC[C@@H]1NC(=O)c1cc(Cl)c(N)cc1OCC(N)=O (relative stereo) [Example 62, Cis-4-amino-2-(2-amino-2-oxoethoxy)-5-chloro-N-{1-[3-(4-fluorophenoxy)propyl]-3-methoxy-4-piperidinyl}benzamide sesquihydrate] | > 3 | 71 | – | – | – | – | – | – |
| > 1 | – | CCN(CC)CCNC(=O)c1cc(Cl)c(N)cc1OCCCSC [Example 49, 4-Amino-5-chloro-N-[2-(diethylamino)ethyl]-2-[3-(methylthio)propoxy]benzamide] | > 3 | 62 | – | – | – | – | – | – |
| – | 11 | CCN(CC)CCNC(=O)c1cc(Cl)c(N)cc1OC [Metoclopramide, reference compound] | 0.5 | 89 | – | 62 | 1.6 | 0.03 | – | – |
| – | 5 | CCN(CC)CCNC(=O)c1cc(Cl)c(N)cc1OCC1=NCCN1 [Example 51, 4-Amino-5-chloro-N-[2-(diethylamino)ethyl]-2-(1H-4,5-dihydroimidazol-2-yl)methoxybenzamide] | > 3 | 71 | – | – | 0.23 | 0.03 | 51 | – |
| 0.76 | – | CO[C@@H]1CN(CCCOc2ccc(F)cc2)CC[C@@H]1NC(=O)c1cc(Cl)c(N)cc1OCCSC.O (relative stereo) [Example 61, Cis-4-amino-5-chloro-N-{1-[3-(4-fluorophenoxy)propyl]-3-methoxy-4-piperidinyl}-2-[2-(methylthio)ethoxy]benzamide monohydrate] | > 3 | 71 | – | – | – | – | – | – |
